Converted amounts (≈) assume the structure as drawn.
Legend:
Assay type in all cases: cell-based
[1] = test system: Rhizomucor pusillus 46342; assay: In vitro antifungal assay (Example IX), microdilution broth, MEC; details: minimum effective concentration (shortening of hyphae), 35° C., 40-48 h, RPMI1640
Outline: (§1)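 Spore suspensions of A. fumigatus and R. pusillus adjusted to 1-2×10^4 spores/mL in RPMI1640 and exposed to compound dilutions prepared in DMSO, by broth microdilution. MEC taken as the lowest concentration shortening hyphae versus DMSO control wells, read as for echinocandins.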

[2] = test system: Aspergillus fumigatus MYA3626; assay: as above; details: minimum effective concentration (shortening of hyphae), 35° C., 40-48 h, RPMI1640
Outline: as §1

[3] = test system: Cryptococcus gattii; assay: In vitro antifungal assay (Example IX), microdilution broth, MIC; details: minimum inhibitory concentration (≥50% inhibition), 35° C., 72 h (Cryptococcus), RPMI1640
Outline: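 Broth microdilution in RPMI1640 with 2.5×10^3 cells/mL inoculum; final compound concentrations were 2–0.0019 μg/mL, with 1% DMSO. Cryptococcus plates were incubated at 35 °C for 72 h, and growth was read at 600 nm to give the MIC.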

[4] = test system: Candida albicans 90028; assay: as above; details: minimum inhibitory concentration (≥50% inhibition), 35° C., 40-48 h, RPMI1640
Outline: (§2)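 CLSI broth microdilution in RPMI1640 with 2.5×10^3 cells/mL and final compound concentrations of 2-0.0019 μg/mL (1% DMSO). C. albicans 90028 plates were incubated at 35° C. for 40-48 h and C. neoformans H99 for 72 h. MIC was read as minimum inhibitory concentration, verified at 600 nm.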

[5] = test system: Cryptococcus neoformans H99; assay: as above; details: minimum inhibitory concentration (≥50% inhibition), 35° C., 72 h, RPMI1640
Outline: as §2

Row | Compound | minimal effective concentration [1] | minimal effective concentration [2] | MIC [3] | MIC [4] | MIC [5]
1 | Nc1ncccc1-c1cc(Cc2ccc(OCc3cccc(Br)n3)nc2)no1 [compound 223, 3-(3-((6-((6-bromopyridin-2-yl)methoxy)pyridin-3-yl)methyl)isoxazol-5-yl)pyridin-2-amine] | > 1 µg/mL | 0.01 to 0.1 µg/mL | 0.1 to 1 µg/mL (≈ 0.228 to 2.28 µM) | 0.01 to 0.1 µg/mL (≈ 0.0228 to 0.228 µM) | 0.1 to 1 µg/mL (≈ 0.228 to 2.28 µM)
2 | N#CCCOc1ccc(Cc2cc(-c3cccnc3N)on2)cn1 [compound 224, 3-((5-((5-(2-aminopyridin-3-yl)isoxazol-3-yl)methyl)pyridin-2-yl)oxy)propanenitrile] | > 1 µg/mL | > 1 µg/mL | > 1 µg/mL | > 1 µg/mL | > 1 µg/mL
3 | C#CCCOc1ccc(Cc2cc(-c3cccnc3N)on2)cn1 [compound 225, 3-(3-((6-(but-3-yn-1-yloxy)pyridin-3-yl)methyl)isoxazol-5-yl)pyridin-2-amine] | 0.1 to 1 µg/mL | 0.01 to 0.1 µg/mL | 0.1 to 1 µg/mL (≈ 0.312 to 3.12 µM) | 0.1 to 1 µg/mL (≈ 0.312 to 3.12 µM) | 0.1 to 1 µg/mL (≈ 0.312 to 3.12 µM)
4 | Nc1ncccc1-c1cc(Cc2ccc(OCc3cccc(F)n3)nc2)no1 [compound 226, 3-(3-((6-((6-fluoropyridin-2-yl)methoxy)pyridin-3-yl)methyl)isoxazol-5-yl)pyridin-2-amine] | > 1 µg/mL | 0.01 to 0.1 µg/mL | 0.1 to 1 µg/mL (≈ 0.265 to 2.65 µM) | 0.01 to 0.1 µg/mL (≈ 0.0265 to 0.265 µM) | 0.01 to 0.1 µg/mL (≈ 0.0265 to 0.265 µM)
5 | [N-]=[N+]=Nc1cccc(NCc2ccc(Cc3cc(-c4cccnc4N)on3)cc2)c1 [compound 231, 3-(3-(4-(((3-azidophenyl)amino)methyl)benzyl)isoxazol-5-yl)pyridin-2-amine] | 0.1 to 1 µg/mL | 0.01 to 0.1 µg/mL | 0.01 to 0.1 µg/mL (≈ 0.0252 to 0.252 µM) | 0.1 to 1 µg/mL (≈ 0.252 to 2.52 µM) | 0.01 to 0.1 µg/mL (≈ 0.0252 to 0.252 µM)
6 | Nc1ncccc1-c1cc(Cc2ccc(Oc3cccc(Cl)n3)cc2)no1 [compound 234, 3-(3-(4-((6-chloropyridin-2-yl)oxy)benzyl)isoxazol-5-yl)pyridin-2-amine] | 0.1 to 1 µg/mL | 0.01 to 0.1 µg/mL | ≤ 0.01 µg/mL | 0.01 to 0.1 µg/mL (≈ 0.0264 to 0.264 µM) | ≤ 0.01 µg/mL
7 | Nc1ncccc1-c1cc(Cc2ccc(Oc3ncccc3F)cc2)no1 [compound 235, 3-(3-(4-((3-fluoropyridin-2-yl)oxy)benzyl)isoxazol-5-yl)pyridin-2-amine] | 0.1 to 1 µg/mL | 0.01 to 0.1 µg/mL | ≤ 0.01 µg/mL | 0.01 to 0.1 µg/mL (≈ 0.0276 to 0.276 µM) | ≤ 0.01 µg/mL
8 | Nc1ncccc1-c1cc(Cc2ccc(Oc3ncc(Cl)cc3F)cc2)no1 [compound 236, 3-(3-(4-((5-chloro-3-fluoropyridin-2-yl)oxy)benzyl)isoxazol-5-yl)pyridin-2-amine] | 0.1 to 1 µg/mL | 0.1 to 1 µg/mL | 0.1 to 1 µg/mL (≈ 0.252 to 2.52 µM) | 0.1 to 1 µg/mL (≈ 0.252 to 2.52 µM) | 0.1 to 1 µg/mL (≈ 0.252 to 2.52 µM)
9 | Nc1ncccc1-c1cc(Cc2ccc(Nc3c(F)cccc3F)nc2)no1 [compound 237, 5-((5-(2-aminopyridin-3-yl)isoxazol-3-yl)methyl)-N-(2,6-difluorophenyl)pyridin-2-amine] | > 1 µg/mL | 0.1 to 1 µg/mL | 0.01 to 0.1 µg/mL (≈ 0.0264 to 0.264 µM) | 0.01 to 0.1 µg/mL (≈ 0.0264 to 0.264 µM) | 0.01 to 0.1 µg/mL (≈ 0.0264 to 0.264 µM)
10 | Nc1ncccc1-c1cc(Cc2ccc(Oc3cc(F)cc(F)n3)cc2)no1 [compound 239, 3-(3-(4-((4,6-difluoropyridin-2-yl)oxy)benzyl)isoxazol-5-yl)pyridin-2-amine] | 0.1 to 1 µg/mL | 0.1 to 1 µg/mL | 0.01 to 0.1 µg/mL (≈ 0.0263 to 0.263 µM) | 0.1 to 1 µg/mL (≈ 0.263 to 2.63 µM) | 0.01 to 0.1 µg/mL (≈ 0.0263 to 0.263 µM)
11 | Nc1ncccc1-c1cc(Cc2ccc(Oc3nc(Cl)cs3)cc2)no1 [compound 240, 3-(3-(4-((4-chlorothiazol-2-yl)oxy)benzyl)isoxazol-5-yl)pyridin-2-amine] | 0.1 to 1 µg/mL | 0.1 to 1 µg/mL | 0.01 to 0.1 µg/mL (≈ 0.026 to 0.26 µM) | 0.1 to 1 µg/mL (≈ 0.26 to 2.6 µM) | 0.01 to 0.1 µg/mL (≈ 0.026 to 0.26 µM)
12 | Nc1ncccc1-c1cc(Cc2ccc(Oc3nc(F)c(F)cc3F)cc2)no1 [compound 241, 3-(3-(4-((3,5,6-trifluoropyridin-2-yl)oxy)benzyl)isoxazol-5-yl)pyridin-2-amine] | 0.1 to 1 µg/mL | 0.01 to 0.1 µg/mL | 0.01 to 0.1 µg/mL (≈ 0.0251 to 0.251 µM) | 0.1 to 1 µg/mL (≈ 0.251 to 2.51 µM) | 0.01 to 0.1 µg/mL (≈ 0.0251 to 0.251 µM)
13 | Nc1ncccc1-c1cc(Cc2ccc(Oc3ncc(F)cc3F)cc2)no1 [compound 242, 3-(3-(4-((3,5-difluoropyridin-2-yl)oxy)benzyl)isoxazol-5-yl)pyridin-2-amine] | 0.1 to 1 µg/mL | 0.01 to 0.1 µg/mL | ≤ 0.01 µg/mL | 0.01 to 0.1 µg/mL (≈ 0.0263 to 0.263 µM) | 0.01 to 0.1 µg/mL (≈ 0.0263 to 0.263 µM)
14 | Nc1ncccc1-c1cc(Cc2ccc(Oc3ncccn3)cc2)no1 [compound 243, 3-(3-(4-(pyrimidin-2-yloxy)benzyl)isoxazol-5-yl)pyridin-2-amine] | > 1 µg/mL | 0.1 to 1 µg/mL | 0.1 to 1 µg/mL (≈ 0.29 to 2.9 µM) | 0.1 to 1 µg/mL (≈ 0.29 to 2.9 µM) | 0.1 to 1 µg/mL (≈ 0.29 to 2.9 µM)
15 | Nc1ncccc1-c1cc(Cc2ccc(Nc3cc(F)ccc3F)nc2)no1 [compound 244, 5-((5-(2-aminopyridin-3-yl)isoxazol-3-yl)methyl)-N-(2,5-difluorophenyl)pyridin-2-amine] | > 1 µg/mL | 0.1 to 1 µg/mL | 0.1 to 1 µg/mL (≈ 0.264 to 2.64 µM) | 0.1 to 1 µg/mL (≈ 0.264 to 2.64 µM) | 0.1 to 1 µg/mL (≈ 0.264 to 2.64 µM)
16 | Nc1ncccc1-c1cc(Cc2ccc(Nc3ccc(F)c(F)c3F)nc2)no1 [compound 245, 5-((5-(2-aminopyridin-3-yl)isoxazol-3-yl)methyl)-N-(2,3,4-trifluorophenyl)pyridin-2-amine] | > 1 µg/mL | 0.1 to 1 µg/mL | 0.1 to 1 µg/mL (≈ 0.252 to 2.52 µM) | 0.1 to 1 µg/mL (≈ 0.252 to 2.52 µM) | 0.1 to 1 µg/mL (≈ 0.252 to 2.52 µM)
17 | Nc1ncccc1-c1cc(Cc2ccc(Oc3ccc(F)cn3)cc2)no1 [compound 246, 3-(3-(4-((5-fluoropyridin-2-yl)oxy)benzyl)isoxazol-5-yl)pyridin-2-amine] | 0.1 to 1 µg/mL | 0.01 to 0.1 µg/mL | 0.1 to 1 µg/mL (≈ 0.276 to 2.76 µM) | 0.1 to 1 µg/mL (≈ 0.276 to 2.76 µM) | 0.01 to 0.1 µg/mL (≈ 0.0276 to 0.276 µM)
18 | Nc1ncccc1-c1cc(Cc2cnc(Nc3ccccc3F)c(F)c2)no1 [compound 250, 5-((5-(2-aminopyridin-3-yl)isoxazol-3-yl)methyl)-3-fluoro-N-(2-fluorophenyl)pyridin-2-amine] | 0.1 to 1 µg/mL | 0.01 to 0.1 µg/mL | 0.1 to 1 µg/mL (≈ 0.264 to 2.64 µM) | 0.01 to 0.1 µg/mL (≈ 0.0264 to 0.264 µM) | 0.01 to 0.1 µg/mL (≈ 0.0264 to 0.264 µM)
19 | Nc1ncccc1-c1cc(Cc2cnc(Nc3c(F)cccc3F)c(F)c2)no1 [compound 253, 5-((5-(2-aminopyridin-3-yl)isoxazol-3-yl)methyl)-N-(2,6-difluorophenyl)-3-fluoropyridin-2-amine] | > 1 µg/mL | 0.1 to 1 µg/mL | 0.1 to 1 µg/mL (≈ 0.252 to 2.52 µM) | 0.1 to 1 µg/mL (≈ 0.252 to 2.52 µM) | 0.1 to 1 µg/mL (≈ 0.252 to 2.52 µM)
20 | Nc1ncccc1-c1cc(Cc2cnc(OCc3ccccc3)c(F)c2)no1 [compound 257, 3-(3-((6-(benzyloxy)-5-fluoropyridin-3-yl)methyl)isoxazol-5-yl)pyridin-2-amine] | 0.1 to 1 µg/mL | 0.01 to 0.1 µg/mL | > 1 µg/mL | 0.01 to 0.1 µg/mL (≈ 0.0266 to 0.266 µM) | 0.1 to 1 µg/mL (≈ 0.266 to 2.66 µM)
21 | Nc1ncccc1-c1cc(Cc2ccc(Oc3cccc(F)n3)c(F)c2)no1 [compound 258, 3-(3-(3-fluoro-4-((6-fluoropyridin-2-yl)oxy)benzyl)isoxazol-5-yl)pyridin-2-amine] | 0.1 to 1 µg/mL | 0.01 to 0.1 µg/mL | 0.1 to 1 µg/mL (≈ 0.263 to 2.63 µM) | 0.1 to 1 µg/mL (≈ 0.263 to 2.63 µM) | 0.01 to 0.1 µg/mL (≈ 0.0263 to 0.263 µM)
22 | Nc1ncccc1-c1cc(Cc2ccc(Cc3cc(F)nc(F)c3)cc2)no1 [compound 261, 3-(3-(4-((2,6-difluoropyridin-4-yl)methyl)benzyl)isoxazol-5-yl)pyridin-2-amine] | 0.1 to 1 µg/mL | 0.1 to 1 µg/mL | 0.1 to 1 µg/mL (≈ 0.264 to 2.64 µM) | 0.1 to 1 µg/mL (≈ 0.264 to 2.64 µM) | 0.1 to 1 µg/mL (≈ 0.264 to 2.64 µM)

Source: patent US11512079B2, “Heterocycle substituted pyridine derivative antifungal agents” (Amplyx Pharmaceuticals, Inc., priority 2017, dated 2022)
